Assay results as given in patent EP1377579B1 (Aventis Pharmaceuticals Inc., priority 2000, dated 2002).
Counter-ions that a name gives are not always drawn.

Legend:
cdk2/cyclin E = cdk2/cyclin E (Homo sapiens, UniProt P24941); assay: Cyclin-dependent kinase assay, cdk2/cyclin E; settings: CDK2 IC50, nM, GST-pRb substrate, 10 µM ATP
Colo-205 = assay: In vitro proliferation assay (MTT), Colo-205; format: cell-based; settings: Homo sapiens, COLO 205; MTT assay; value (SD, n) where given; read-out: Colo-205 Colon (IC50 µM)
Outline: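 After 3 days of compound exposure, MTT was added to Colo-205 cultures for 2–4 h at 37 °C. Formazan was dissolved in DMSO and absorbance read at 570 nm. Cells had been plated at 1000–2500/well and left to recover overnight; IC50 values came from the raw readings.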

cdk4/cyclin D1 = cdk4/cyclin D1 (Homo sapiens, UniProt P11802); assay: Cyclin-dependent kinase assay, cdk4/cyclin D1; format: biochemical; settings: cyclin D1/cdk4; GST-pRb substrate, 10 µM ATP
Chain of cdk4/cyclin D1 (P11802 whole entry): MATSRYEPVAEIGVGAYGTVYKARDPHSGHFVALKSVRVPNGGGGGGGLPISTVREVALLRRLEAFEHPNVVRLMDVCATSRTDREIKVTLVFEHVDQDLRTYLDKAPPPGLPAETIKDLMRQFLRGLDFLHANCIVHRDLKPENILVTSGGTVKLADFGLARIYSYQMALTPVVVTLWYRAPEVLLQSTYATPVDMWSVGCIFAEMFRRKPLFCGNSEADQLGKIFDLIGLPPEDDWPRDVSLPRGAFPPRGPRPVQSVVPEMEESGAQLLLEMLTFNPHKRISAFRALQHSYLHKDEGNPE
Chain of cdk4/cyclin D1 (P24385 whole entry partner): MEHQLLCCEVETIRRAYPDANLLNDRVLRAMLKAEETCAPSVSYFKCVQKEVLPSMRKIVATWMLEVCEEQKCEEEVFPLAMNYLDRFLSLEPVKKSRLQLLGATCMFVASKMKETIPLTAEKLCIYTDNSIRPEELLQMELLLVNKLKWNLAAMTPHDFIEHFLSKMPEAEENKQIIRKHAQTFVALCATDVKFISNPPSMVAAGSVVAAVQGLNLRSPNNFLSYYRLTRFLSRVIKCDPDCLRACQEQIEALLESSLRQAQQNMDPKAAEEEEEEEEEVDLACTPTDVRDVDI

HL-60 = assay: In vitro proliferation assay (MTT), HL-60; format: cell-based; settings: Homo sapiens, HL-60; MTT assay; value (SD, n) where given; read-out: HL-60 Leuk. (IC50 µM)
Description: (§1) The proliferation of tumor cells can be measured using a tetrazolium salt-based assay known as the MTT (3-[4,5-Dimethylthiazol-2-yl]-2,5-diphenyltetrazolium bromide) assay. The proliferation test is performed essentially as described by Carmichael et al., Cancer Res. 47: 936-942, 1987. For the assay, the cell lines are plated onto 96 well plates at 1000 to 2500 cells/well (depending on the properties of the individual cell lines), left to attach and recover overnight. […] After 3 days, the cells are incubated with MTT dye (3-[4,5-Dimethylthiazol-2-yl]-2,5-diphenyltetrazolium bromide, Sigma # M5655, 10 mg/ml in Hank's Buffered Saline) to estimate the amount of live cells remaining vs. concentration for the test compounds. Specifically, MTT solution is added to a final concentration of […] and the plates incubated at 37 C for 2 to 4 hr. The MTT and culture medium is then removed from the cultures and 200 µl of DMSO is added to solubilize the dye from the cell layer. The absorbance at 570 nm is determined for each culture using a Spectramax plate reader (Molecular Devices).
(§2) IC50s were determined from the raw data from either the MTT or SRB assays.
(§3) All of the cell lines were obtained from American Type Tissue Collection, with the ATCC accession number in parentheticals. MCF-7 and MDA-MB-231 cells were grown in improved minimum essential medium (Biofluids) without phenol red, supplemented with 5 % fetal bovine serum, 0.01 mg/ml gentamicin and 3 mM L-glutamine. All of the other cell lines were grown in RPMI 1640 medium (Life Technologies) supplemented with 5 % fetal bovine serum, 0.01 mg/ml gentamicin and 3 mM L-glutamine TABLE 3

PC-3 = assay: In vitro proliferation assay (MTT), PC-3; format: cell-based, human; settings: Homo sapiens, PC-3, MTT assay; value (SD, n) where given; read-out: PC-3 Prostate (IC50 µM)
Outline: (§4)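 Step one: plate 1000 to 2500 cells per well and let them recover overnight. Step two: treat with compound for 3 days. Step three: add MTT, dissolve dye in DMSO, read absorbance at 570 nm and determine IC50.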

NCI-H460 = assay: In vitro proliferation assay (MTT), NCI-H460; format: cell-based; settings: Homo sapiens, NCI-H460; MTT assay; value (SD, n) where given; read-out: H-460 Lung (IC50 µM)
Outline: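 IC50 values come from live-cell estimates based on MTT reduction measured at 570 nm after 3 days of compound treatment. Cells are seeded at 1000 to 2500 per well in serum-supplemented RPMI 1640. They are stained with MTT for 2 to 4 hr at 37 C and the dye is then taken up in DMSO.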

cdk1/cyclin B = cdk1/cyclin B (Homo sapiens, UniProt P06493); assay: Cyclin-dependent kinase assay, cdk1/cyclin B; settings: CDK1 IC50, nM, Histone H1, 10 µM ATP
Chain of cdk1/cyclin B (P06493 whole entry): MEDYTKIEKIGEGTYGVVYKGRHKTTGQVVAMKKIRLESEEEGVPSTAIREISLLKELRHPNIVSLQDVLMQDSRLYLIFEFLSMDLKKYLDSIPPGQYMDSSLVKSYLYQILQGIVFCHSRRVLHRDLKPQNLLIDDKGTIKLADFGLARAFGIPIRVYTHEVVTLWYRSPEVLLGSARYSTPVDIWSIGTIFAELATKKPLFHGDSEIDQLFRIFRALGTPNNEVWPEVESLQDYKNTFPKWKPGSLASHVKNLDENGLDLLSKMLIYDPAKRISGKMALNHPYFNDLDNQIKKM
Chain of cdk1/cyclin B (P14635 whole entry partner): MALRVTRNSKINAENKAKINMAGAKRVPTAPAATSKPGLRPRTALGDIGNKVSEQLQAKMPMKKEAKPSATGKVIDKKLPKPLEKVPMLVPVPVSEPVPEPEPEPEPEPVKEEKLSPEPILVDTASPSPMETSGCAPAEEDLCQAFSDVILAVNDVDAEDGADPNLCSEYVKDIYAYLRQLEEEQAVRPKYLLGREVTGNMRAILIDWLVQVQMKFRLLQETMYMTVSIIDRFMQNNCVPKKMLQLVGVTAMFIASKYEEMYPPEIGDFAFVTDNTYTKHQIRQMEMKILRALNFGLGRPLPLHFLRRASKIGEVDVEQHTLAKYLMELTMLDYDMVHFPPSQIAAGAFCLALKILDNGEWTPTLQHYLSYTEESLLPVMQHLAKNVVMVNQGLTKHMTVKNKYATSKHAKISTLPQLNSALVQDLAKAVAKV

MDA-MB-435 = assay: In vitro proliferation assay (MTT), MDA-MB-435; format: cell-based, human; settings: Homo sapiens, MDA-MB-435, MTT assay; value (SD, n) where given; read-out: MB-435 Breast (IC50 µM)
Outline: as §4

Jurkat = assay: In vitro proliferation assay (MTT), Jurkat; format: cell-based; settings: Homo sapiens, MTT assay, value (SD, n) where given, read-out: Jurkat Leuk. (IC50 µM)
Description: as §1, §2, §3

SMILES	IC50 (cdk2/cyclin E)	IC50 (Colo-205)	IC50 (cdk4/cyclin D1)	IC50 (HL-60)	IC50 (PC-3)	IC50 (NCI-H460)	IC50 (cdk1/cyclin B)	IC50 (MDA-MB-435)	IC50 (Jurkat)
N[C@H]1CC[C@H](Nc2nc(NC3CCN(C(=O)Nc4ccc(Cl)cc4)CC3)c3ncn(C4CCCC4)c3n2)CC1 [compound 150, trans-4-[2-(4-Amino-cyclohexylamino)-9-cyclopentyl-9H-purin-6-ylamino]-piperidine-1-carboxylic acid (4-chloro-phenyl)-amide dihydrochloride]	55 nM	0.02 µM	91 nM	< 0.02 µM	0.25 µM	0.19 µM	26 nM	0.2 µM	0.24 µM
N[C@H]1CC[C@H](Nc2nc(NC3CCN(C(=O)Nc4cccc(C(F)(F)F)c4)CC3)c3ncn(C4CCCC4)c3n2)CC1 [compound 159, trans-4-[2-(4-Amino-cyclohexylamino)-9-cyclopentyl-9H-purin-6-ylamino]-piperidine-1-carboxylic acid (3-trifluoromethyl-phenyl)-amide dihydrochloride]	16 nM	0.02 µM	702 nM	0.07 µM	0.33 µM	0.4 µM	4 nM	0.2 µM	0.41 µM
N[C@H]1CC[C@H](Nc2nc(NC3CCN(C(=O)Nc4ccc(Br)cc4)CC3)c3ncn(C4CCCC4)c3n2)CC1 [compound 162, trans-4-[2-(4-Amino-cyclohexylamino)-9-cyclopentyl-9H-purin-6-ylamino]-piperidine-1-carboxylic acid (4-bromo-phenyl)-amide dihydrochloride]	72 nM	0.04 µM	603 nM	< 0.02 µM	0.12 µM	0.18 µM	15 nM	0.14 µM	0.19 µM
COc1ccccc1NC(=O)N1CCC(Nc2nc(N[C@H]3CC[C@H](N)CC3)nc3c2ncn3C2CCCC2)CC1 [compound 163, trans-4-[2-(4-Amino-cyclohexylamino)-9-cyclopentyl-9H-purin-6-ylamino]-piperidine-1-carboxylic acid (2-methoxy-phenyl)-amide dihydrochloride]	57 nM	0.19 µM	855 nM	0.05 µM	0.21 µM	0.21 µM	37 nM	0.17 µM	0.28 µM
N[C@H]1CC[C@H](Nc2nc(NC3CCN(C(=O)Nc4cccc(Cl)c4)CC3)c3ncn(C4CCCC4)c3n2)CC1 [compound 165, trans-4-[2-(4-Amino-cyclohexylamino)-9-cyclopentyl-9H-purin-6-ylamino]-piperidine-1-carboxylic acid (3-chloro-phenyl)-amide dihydrochloride]	21 nM	0.02 µM	711 nM	< 0.02 µM	0.13 µM	0.2 µM	11 nM	0.08 µM	0.22 µM
N[C@H]1CC[C@H](Nc2nc(NC3CCN(C(=O)Nc4ccccc4Cl)CC3)c3ncn(C4CCCC4)c3n2)CC1 [compound 169, trans-4-[2-(4-Amino-cyclohexylamino)-9-cyclopentyl-9H-purin-6-ylamino]-piperidine-1-carboxylic acid (2-chloro-phenyl)-amide dihydrochloride]	45 nM	0.09 µM	130 nM	0.04 µM	0.15 µM	0.15 µM	28 nM	0.11 µM	0.21 µM
N[C@H]1CC[C@H](Nc2nc(NC3CCN(C(=O)Nc4cccc(Br)c4)CC3)c3ncn(C4CCCC4)c3n2)CC1 [compound 170, trans-4-[2-(4-Amino-cyclohexylamino)-9-cyclopentyl-9H-purin-6-ylamino]-piperidine-1-carboxylic acid (3-bromo-phenyl)-amide dihydrochloride]	51 nM	< 0.02 µM	156 nM	< 0.02 µM	0.26 µM	0.3 µM	3 nM	0.19 µM	0.24 µM
CCOc1ccccc1NC(=O)N1CCC(Nc2nc(N[C@H]3CC[C@H](N)CC3)nc3c2ncn3C2CCCC2)CC1 [compound 171, trans-4-[2-(4-Amino-cyclohexylamino)-9-cyclopentyl-9H-purin-6-ylamino]-piperidine-1-carboxylic acid (2-ethoxy-phenyl)-amide dihydrochloride]	89 nM	0.14 µM	963 nM	0.05 µM	0.23 µM	0.23 µM	51 nM	0.25 µM	0.31 µM
N[C@H]1CC[C@H](Nc2nc(NC3CCN(C(=O)Nc4ccc(OC(F)(F)F)cc4)CC3)c3ncn(C4CCCC4)c3n2)CC1 [compound 175, trans-4-[2-(4-Amino-cyclohexylamino)-9-cyclopentyl-9H-purin-6-ylamino]-piperidine-1-carboxylic acid (4-trifluoromethoxy-phenyl)-amide dihydrochloride]	114 nM	0.05 µM	682 nM	0.04 µM	0.2 µM	0.23 µM	12 nM	0.12 µM	0.16 µM
N[C@H]1CC[C@H](Nc2nc(NC3CCN(C(=O)Nc4cc(C(F)(F)F)ccc4Cl)CC3)c3ncn(C4CCCC4)c3n2)CC1 [compound 177, trans-4-[2-(4-Amino-cyclohexylamino)-9-cyclopentyl-9H-purin-6-ylamino]-piperidine-1-carboxylic acid (2-chloro-5-trifluoromethyl-phenyl)-amide dihydrochloride]	60 nM	0.12 µM	432 nM	0.03 µM	0.15 µM	0.14 µM	7 nM	0.17 µM	0.21 µM
N[C@H]1CC[C@H](Nc2nc(NC3CCN(C(=O)Nc4ccc(Cl)cc4C(F)(F)F)CC3)c3ncn(C4CCCC4)c3n2)CC1 [compound 178, trans-4-[2-(4-Amino-cyclohexylamino)-9-cyclopentyl-9H-purin-6-ylamino]-piperidine-1-carboxylic acid (4-chloro-2-trifluoromethyl-phenyl)-amide dihydrochloride]	100 nM	0.09 µM	879 nM	< 0.02 µM	0.16 µM	0.23 µM	49 nM	0.14 µM	0.28 µM
N[C@H]1CC[C@H](Nc2nc(NC3CCN(C(=O)Nc4ccc(Cl)c(C(F)(F)F)c4)CC3)c3ncn(C4CCCC4)c3n2)CC1 [compound 179, trans-4-[2-(4-Amino-cyclohexylamino)-9-cyclopentyl-9H-purin-6-ylamino]-piperidine-1-carboxylic acid (4-chloro-3-trifluoromethyl-phenyl)-amide dihydrochloride]	261 nM	0.18 µM	497 nM	0.07 µM	0.37 µM	0.5 µM	8 nM	0.24 µM	0.5 µM
